In patent US20260256705A1, “LIPID NANOPARTICLE FORMULATIONS FOR VACCINES” (GLOBAL LIFE SCIENCES SOLUTIONS CANADA ULC, priority 2022, published 2026):

System: Luciferase mRNA
Assay: Intravenous protein replacement model, Luciferase mRNA LNP
Type: in vivo, mice
Details: intravenous 0.1 mg/kg, four hours post administration
Method: Two different LNPs according to embodiments of the invention were injected into mice intravenously at 0.1 mg/kg. The payload was Luciferase·mRNA (Trilink-CLEANCAP™ FLuc mRNA (5 moU), Cat #L-7202). The top row of photographs in FIG. 8 showing fluorescence at four hours post administration was achieved by intravenous administration of LNP comprising PNI 516 30%, DPSC 56%, cholesterol 12.5% and DMG-PEG 1.5%. The bottom row in FIG. 8, which is brighter, was achieved by LNP comprising PNI 580 30%, DSPC 56%, cholesterol 12.5%, and DMG-PEG-1.5%.

Structure (SMILES): CCCCCCCCC(CCCCCC)C(=O)O[C@@H]1[C@@H](OC(=O)C(CCCCCC)CCCCCCCC)CO[C@@H]1COC(=O)CCCN(C)C (stereo partly drawn) [PNI 580, (2R,3S,4S)-2-(((4-(dimethylamino)butanoyl)oxy)methyl)tetrahydrofuran-3,4-diyl bis(2-hexyldecanoate)]
- protein expression in vivo (fluorescence): slightly more effective
